The values below come from patent US20210253562A1, “ACYLSUFONAMIDE COMPOUNDS USEFUL AS EP3 RECEPTOR ANTAGONISTS” (Janssen Pharmaceutica NV, priority 2018, published 2021).

In one test the test system is male Sprague Dawley rats. Kind of test: IV infused EP3 antagonists on circulating insulin and glucose in the sulprostone infusion IVGTT model. The class given is in vivo, rat. To be noted: SD rats, 2.1 mg/kg bolus followed by 3.09 mg/kg/hour infusion. From the text: Biological Example 3: IV Infused EP3 Antagonists on Circulating Insulin and Glucose in the Sulprostone Infusion IVGTT Model
Jugular vein and carotid artery cannulated male Sprague Dawley rats (˜250 g, available from Charles River) were housed one rat per suspended cage in a temperature-controlled room with 12-hour light/dark cycle. The rats were allowed ad libitum access to water and maintained on a regular diet. Animals were acclimated for minimum 5 days prior to the start of the experiment. Experimental procedures were carried out in accordance with institutional standards for animal care and were approved by the institute's animal care and use committee.
A blood sample for insulin and blood chemistry was collected at 20 min (t=−20) prior to the start of dosing with sulprostone and/or test compound (EP3 antagonist). […]
Blood samples from all animals were collected into Heparin treated tubes. Background was measured via a glucometer at the 0 and 2 min time points to ensure that the animal received the glucose bolus. Plasma insulin was measured via a Meso Scale Discovery metabolic assay (available from Meso Scale). Plasma glucose, free fatty acid (FFA), triglycerides, cholesterol and ketones were measured on an OLYMPUS AU400E chemistry analyzer. Observations on animal health were recorded throughout the procedure. […]

Test [1] deals with T1, EP3 membrane (EP3 receptor) (Homo sapiens, UniProt P43115).
T1 construct: purchased Millipore HTS092M
T1 sequence (P43115 1-390): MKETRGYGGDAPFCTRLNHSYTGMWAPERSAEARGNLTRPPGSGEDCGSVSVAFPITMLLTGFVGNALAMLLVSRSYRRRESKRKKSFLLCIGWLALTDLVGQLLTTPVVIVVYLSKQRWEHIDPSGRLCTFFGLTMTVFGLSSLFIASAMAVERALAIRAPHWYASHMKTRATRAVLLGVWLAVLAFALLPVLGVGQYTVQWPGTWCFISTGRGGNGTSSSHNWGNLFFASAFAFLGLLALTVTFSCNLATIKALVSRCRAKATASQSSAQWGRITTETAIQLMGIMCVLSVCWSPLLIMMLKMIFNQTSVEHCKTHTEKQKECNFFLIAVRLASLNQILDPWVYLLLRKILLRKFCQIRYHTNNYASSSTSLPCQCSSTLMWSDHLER
Kind of test: [3H]-PGE2 binding; EP3 competition binding (SPA). In short, it runs like this:
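SPA competition at room temperature, 2 h: EP3 membranes 2 μg/well, 2 nM [3H]-PGE2, 0.1% DMSO, in Tris/MgCl2/EDTA buffer pH 7.4. Compounds in 1:3 serial dilution; scintillation read; Ki by one-site nonlinear fit.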

For test [2], the target named is T2, CHO cells over-expressing the EP3 receptor (Homo sapiens, UniProt P43115).
T2 construct: expressed in transfected cells; host or cells: CHO cells
T2 sequence (P43115 1-390): T1 sequence (P43115 1-390)
Kind of test: CHO cell cAMP assay; EP3 cAMP antagonist dose response (sulprostone reference), HTRF. The class given is cell-based. To be noted: sulprostone 700 nM (EC80) and FSK 2 μM (EC70); read-out: CHO_cAMP IC50. In short, it runs like this: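 EP3-overexpressing CHO cells pre-incubated with test compound, then stimulated 30 min at 37 °C with FSK (2 μM, EC70) plus sulprostone (700 nM, EC80); antagonism seen as restored cAMP. cAMP measured by HTRF 665/615 ratio, converted via on-plate standard curve. IC50 from Hill fit of 11-point dosing.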

Consider `O=C(NC/C=C1\CCCc2cnn(Cc3ccc(Cl)cc3Cl)c21)NS(=O)(=O)c1ccc(Cl)cc1` [Compound #4, (E)-4-chloro-N-((2-(1-(2,4-dichlorobenzyl)-1,4,5,6-tetrahydro-7H-indazol-7-ylidene)ethyl)carbamoyl)benzenesulfonamide], for which the “suppression of glucose stimulated insulin secretion (GSIS) by sulprostone” value in the test with male Sprague Dawley rats was “reverse suppression of glucose stimulated insulin secretion (GSIS) by sulprostone”. In test [1], this compound had a Ki of 4 nM. Further, in test [2], the IC50 was 12 nM.
In the case of `COc1ccc(-n2ncc3c2/C(=C/CNC(=O)NS(=O)(=O)c2cc(Cl)c(Cl)s2)CCC3)cn1` [Compound #107, (E)-4,5-dichloro-N-((2-(1-(6-methoxypyridin-3-yl)-1,4,5,6-tetrahydro-7H-indazol-7-ylidene)ethyl)carbamoyl)thiophene-2-sulfonamide], the affinity in test [1] corresponds to a Ki of 2 nM. In addition, the IC50 in test [2] is 27 nM.
With `O=C(NC/C=C1\CCCc2cnn(Cc3ccc4ccccc4c3)c21)NS(=O)(=O)c1cc(Cl)c(Cl)s1` [Compound #88, (E)-4,5-dichloro-N-((2-(1-(naphthalen-2-ylmethyl)-1,4,5,6-tetrahydro-7H-indazol-7-ylidene)ethyl)carbamoyl)thiophene-2-sulfonamide], in test [1], the affinity corresponds to a Ki of 104 nM. For the same compound, the IC50 in test [2] worked out at 554 nM.
On to `O=C(NC/C=C1/c2c(cnn2Cc2ccc(Cl)cc2Cl)CCC1F)NS(=O)(=O)c1ccc(Cl)cc1` (stereo not shown) [Compound #73, (Z)-4-chloro-N-((2-(1-(2,4-dichlorobenzyl)-6-fluoro-1,4,5,6-tetrahydro-7H-indazol-7-ylidene)ethyl)carbamoyl)benzenesulfonamide], for which, in test [1], affinity was put at a Ki of 3 nM. In test [2], the IC50 worked out at 5 nM.
The like results for `O=C(NC/C(F)=C1/CCCn2nnc(Cc3ccccc3)c21)NS(=O)(=O)c1cc(Cl)c(Cl)s1` [Compound #135, (E)-N-((2-(3-benzyl-6,7-dihydro-[1,2,3]triazolo[1,5-a]pyridin-4(5H)-ylidene)-2-fluoroethyl)carbamoyl)-4,5-dichlorothiophene-2-sulfonamide] were, in that order, 472 nM and 4600 nM.
For `O=C(/C=C/C=C1\CCCc2cnn(Cc3ccc(Cl)cc3Cl)c21)NS(=O)(=O)c1cc(Cl)c(Cl)s1` [Compound #6, (E)-4-((E)-1-(2,4-dichlorobenzyl)-1,4,5,6-tetrahydro-7H-indazol-7-ylidene)-N-((4,5-dichlorothiophen-2-yl)sulfonyl)but-2-enamide], in test [1], the affinity, expressed as Ki, was 84 nM. In addition, the IC50 in test [2] stood at 110 nM.
